{
  "source": "patent US8143263B2",
  "about": "“Therapeutic agents” (Astrazeneca AB, priority 2008, dated 2012)",
  "data": [
    {"biological_target": "T1, recombinant human pancreatic GLK (Homo sapiens, UniProt P35557)", "T1 sequence (P35557 1-465)": "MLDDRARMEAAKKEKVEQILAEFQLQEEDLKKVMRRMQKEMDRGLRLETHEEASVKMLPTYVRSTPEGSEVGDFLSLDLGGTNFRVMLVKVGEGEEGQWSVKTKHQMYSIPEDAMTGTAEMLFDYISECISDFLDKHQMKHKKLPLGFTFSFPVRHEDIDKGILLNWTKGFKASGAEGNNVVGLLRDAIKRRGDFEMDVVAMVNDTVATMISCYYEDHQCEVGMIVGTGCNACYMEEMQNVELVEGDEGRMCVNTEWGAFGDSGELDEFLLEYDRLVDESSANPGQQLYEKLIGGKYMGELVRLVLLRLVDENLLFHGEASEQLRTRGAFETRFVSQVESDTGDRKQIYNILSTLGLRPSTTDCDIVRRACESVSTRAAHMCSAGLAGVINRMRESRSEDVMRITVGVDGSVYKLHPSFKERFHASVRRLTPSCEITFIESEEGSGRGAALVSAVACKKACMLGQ", "assay": "biochemical", "units": {"EC50": "µM"}, "values": [
      {"smiles": "COC[C@@H](Oc1ncnc2c1cnn2-c1ccccc1Cl)C(=O)Nc1ccc(C)cn1", "note": "[Example 88, (2R)-2-(1-(2-chlorophenyl)-1H-pyrazolo[3,4-d]pyrimidin-4-yloxy)-3-methoxy-N-(5-methylpyridin-2-yl)propanamide]", "EC50": 5.1},
      {"smiles": "N#Cc1ccc(NC(=O)[C@H](COCCO)Oc2ncnc3c2cnn3-c2c(Cl)cccc2Cl)nc1", "note": "[Example 235, (2S)—N-(5-cyano-2-pyridyl)-2-[1-(2,6-dichlorophenyl)pyrazolo[3,4-d]pyrimidin-4-yl]oxy-3-(2-hydroxyethoxy)propanamide]", "EC50": 0.4},
      {"smiles": "COC[C@@H](C)OC[C@H](Oc1ncnc2c1cnn2-c1ncccc1Cl)C(=O)Nc1ccc(C)cn1", "note": "[Example 154, (2S)-2-(1-(3-chloropyridin-2-yl)-1H-pyrazolo[3,4-d]pyrimidin-4-yloxy)-3-((R)-1-methoxypropan-2-yloxy)-N-(5-methylpyridin-2-yl)propanamide]", "EC50": 1.2},
      {"smiles": "Cc1cnc(NC(=O)[C@H](CO[C@H](C)CO)Oc2ncnc3c2cnn3-c2ccccc2Cl)cn1", "note": "[Example 247, (2S)-2-[1-(2-chlorophenyl)pyrazolo[3,4-d]pyrimidin-4-yl]oxy-3-[(1R)-2-hydroxy-1-methyl-ethoxy]-N-(5-methylpyrazin-2-yl)propanamide]", "EC50": 0.59},
      {"smiles": "Cc1ccc(NC(=O)[C@H](COC2CCC2)Oc2ncnc3c2cnn3-c2nccnc2C)nc1", "note": "[Example 144, (2S)-3-(cyclobutoxy)-2-[1-(3-methylpyrazin-2-yl)pyrazolo[4,5-e]pyrimidin-4-yl]oxy-N-(5-methyl-2-pyridyl)propanamide]", "EC50": 0.51},
      {"smiles": "O=C(Nc1ccc(Cl)cn1)[C@H](CCO)Oc1ncnc2c1cnn2-c1ncccc1Cl", "note": "[Example 143b, (2S)-N-(5-chloro-2-pyridyl)-2-[1-(3-chloro-2-pyridyl)pyrazolo[4,5-e]pyrimidin-4-yl]oxy-4-hydroxy-butanamide]", "EC50": 0.26},
      {"smiles": "COCCOCCC(Sc1ncnc2c1cnn2-c1ccccc1Cl)C(=O)Nc1ccc(C)cn1", "note": "(stereo not shown) [2-[1-(2-chlorophenyl)pyrazolo[4,5-e]pyrimidin-4-yl]sulfanyl-4-(2-methoxyethoxy)-N-(5-methyl-2-pyridyl)butanamide]", "EC50": "> 100"},
      {"smiles": "COCCOCCC(Sc1ncnc2c1cnn2C(C)C)C(=O)Nc1ccc(C)cn1", "note": "(stereo not shown) [Example 58, 2-[(1-Isopropyl-1H-pyrazolo[3,4-d]pyrimidin-4-yl)thio]-4-(2-methoxyethoxy)-N-(5-methylpyridin-2-yl)butanamide]", "EC50": 1.95},
      {"smiles": "CCOC[C@H](Oc1ncnc2c1nnn2-c1ccccc1Cl)C(=O)Nc1ccc(C#N)cn1", "note": "[Example 197, (2S)-2-(3-(2-chlorophenyl)-3H-[1,2,3]triazolo[4,5-d]pyrimidin-7-yloxy)-N-(5-cyanopyridin-2-yl)-3-ethoxypropanamide]", "EC50": 0.6},
      {"smiles": "CC(C)OCC(Oc1ncnc2c1cnn2-c1ccccc1Cl)C(=O)Nc1ccc(Cl)cn1", "note": "(stereo not shown) [Example 115, 2-[1-(2-chlorophenyl)pyrazolo[4,5-e]pyrimidin-4-yl]oxy-N-(5-chloro-2-pyridyl)-3-isopropoxy-propanamide]", "EC50": 0.11},
      {"smiles": "Cc1ccc(NC(=O)[C@H](Oc2ncnc3c2cnn3-c2ccccc2Cl)C(C)C)nc1", "note": "[Example 85, (2R)-2-(1-(2-chlorophenyl)-1H-pyrazolo[3,4-d]pyrimidin-4-yloxy)-3-methyl-N-(5-methylpyridin-2-yl)butanamide]", "EC50": 9.5},
      {"smiles": "CCOC[C@H](Oc1ncnc2c1cnn2-c1ccccc1C(F)(F)F)C(=O)Nc1cnc(C)cn1", "note": "[Example 133, (2S)-3-ethoxy-N-(5-methylpyrazin-2-yl)-2-[1-[2-(trifluoromethyl)phenyl]pyrazolo[4,5-e]pyrimidin-4-yl]oxypropanamide]", "EC50": 1.1},
      {"smiles": "N#Cc1cccc(Cl)c1-n1ncc2c(O[C@@H](CN3CCC3)C(=O)Nc3ccccn3)ncnc21", "note": "[Example 221, (2S)-3-(azetidin-1-yl)-2-[1-(2-chloro-6-cyano-phenyl)pyrazolo[3,4-d]pyrimidin-4-yl]oxy-N-(2-pyridyl)propanamide]", "EC50": 0.31},
      {"smiles": "Cc1ccc(NC(=O)[C@H](CCO)Oc2ncnc3c2cnn3-c2ccccc2Cl)nc1", "note": "[Example 145, (2S)-2-[1-(2-chlorophenyl)pyrazolo[4,5-e]pyrimidin-4-yl]oxy-4-hydroxy-N-(5-methyl-2-pyridyl)butanamide]", "EC50": 0.23},
      {"smiles": "COCC[C@H](Oc1ncnc2c1cnn2-c1ncccc1Cl)C(=O)Nc1ccc(C)cn1", "note": "[Example 102, (2S)-2-(1-(3-Chloropyridin-2-yl)-1H-pyrazolo[3,4-d]pyrimidin-4-yloxy)-4-methoxy-N-(5-methylpyridin-2-yl)butanamide]", "EC50": 0.13},
      {"smiles": "CCOC[C@H](Oc1ncnc2c1cnn2-c1ncccc1Cl)C(=O)Nc1ccncn1", "note": "[Example 127f, (2S)-2-[1-(3-chloro-2-pyridyl)pyrazolo[4,5-e]pyrimidin-4-yl]oxy-3-ethoxy-N-pyrimidin-4-yl-propanamide]", "EC50": 1.1},
      {"smiles": "CCOC[C@H](Oc1ncnc2c1cnn2-c1nccn1C)C(=O)Nc1ccc(Cl)cn1", "note": "[Example 210, (2S)—N-(5-chloropyridin-2-yl)-3-ethoxy-2-(1-(1-methyl-1H-imidazol-2-yl)-1H-pyrazolo[3,4-d]pyrimidin-4-yloxy)propanamide]", "EC50": 1.2},
      {"smiles": "Cc1ccc(NC(=O)[C@H](COCCO)Oc2ncnc3c2nnn3-c2ccccc2Cl)nc1", "note": "[Example 195, (2S)-2-(3-(2-chlorophenyl)-3H-[1,2,3]triazolo[4,5-d]pyrimidin-7-yloxy)-3-(2-hydroxyethoxy)-N-(5-methylpyridin-2-yl)propanamide]", "EC50": 2},
      {"smiles": "COCC[C@H](Oc1ncnc2c1cnn2-c1cccc(OC)c1)C(=O)Nc1ccc(C)cn1", "note": "[Example 15, (S)-4-methoxy-2-{[1-(3-methoxyphenyl)-1H-pyrazolo[3,4-d]pyrimidin-4-yl]oxy}-N-(5-methylpyridin-2-yl)butanamide]", "EC50": 2.7},
      {"smiles": "O=C(Nc1ccccn1)[C@H](CN1CC(O)C1)Oc1ncnc2c1cnn2-c1c(F)cccc1Cl", "note": "[Example 222, (2S)-2-[1-(2-chloro-6-fluoro-phenyl)pyrazolo[3,4-d]pyrimidin-4-yl]oxy-3-(3-hydroxyazetidin-1-yl)-N-(2-pyridyl)propanamide]", "EC50": 0.14},
      {"smiles": "CC(=O)OCC[C@H](Oc1ncnc2c1cnn2-c1ncccc1Cl)C(=O)Nc1ccc(C)cn1", "note": "[Example 159, [(3S)-3-[1-(3-chloropyridin-2-yl)pyrazolo[4,5-e]pyrimidin-4-yl]oxy-4-[(5-methylpyridin-2-yl)amino]-4-oxobutyl]acetate]", "EC50": 0.85},
      {"smiles": "COCC[C@H](Oc1ncnc2c1cnn2-c1cccc(C)c1)C(=O)Nc1ccc(C)cn1", "note": "[Example 33, (S)-4-methoxy-2-{[1-(3-methylphenyl)-1H-pyrazolo[3,4-d]pyrimidin-4-yl]oxy}-N-(5-methylpyridin-2-yl)butanamide]", "EC50": "> 1.7"},
      {"smiles": "Cc1cnc(NC(=O)[C@H](CN2CC(O)C2)Oc2ncnc3c2cnn3-c2ccccc2Cl)cn1", "note": "[Example 219, (2S)-2-[1-(2-chlorophenyl)pyrazolo[4,5-e]pyrimidin-4-yl]oxy-3-(3-hydroxyazetidin-1-yl)-N-(5-methylpyrazin-2-yl)propanamide]", "EC50": 0.28},
      {"smiles": "Cc1cnc(NC(=O)[C@H](COC2CCC2)Oc2ncnc3c2cnn3-c2ccccc2)cn1", "note": "[Example 142, (S)-3-cyclobutoxy-N-(5-methylpyrazin-2-yl)-2-(1-phenyl-1H-pyrazolo[3,4-d]pyrimidin-4-yloxy)propanamide]", "EC50": 2.4},
      {"smiles": "CC(C)OC[C@H](Oc1ncnc2c1cnn2-c1ccccc1Cl)C(=O)Nc1ccc(F)cn1", "note": "[Example 112a, (2S)-2-[1-(2-chlorophenyl)pyrazolo[4,5-e]pyrimidin-4-yl]oxy-N-(5-fluoro-2-pyridyl)-3-isopropoxy-propanamide]", "EC50": 0.22},
      {"smiles": "Cc1cnc(NC(=O)[C@H](COC2CCC2)Oc2ncnc3c2cnn3-c2ncccc2Cl)cn1", "note": "[Example 157, (2S)-2-(1-(3-chloropyridin-2-yl)-1H-pyrazolo[3,4-d]pyrimidin-4-yloxy)-3-cyclobutoxy-N-(5-methylpyrazin-2-yl)propanamide]", "EC50": 0.14},
      {"smiles": "CC(C)OC[C@H](Oc1ncnc2c1cnn2-c1ncccc1Cl)C(=O)Nc1ccc(F)cn1", "note": "[Example 127l, (2S)-2-[1-(3-chloro-2-pyridyl)pyrazolo[4,5-e]pyrimidin-4-yl]oxy-N-(5-fluoro-2-pyridyl)-3-isopropoxy-propanamide]", "EC50": 0.5},
      {"smiles": "Cc1cnc(NC(=O)[C@H](COC2CCC2)Oc2ncnc3c2cnn3-c2ccncc2C)cn1", "note": "[Example 136, (2S)-3-cyclobutyloxy-N-(5-methylpyrazin-2-yl)-2-[1-(3-methylpyridin-4-yl)pyrazolo[4,5-e]pyrimidin-4-yl]oxypropanamide]", "EC50": 2.1},
      {"smiles": "Cc1cnc(NC(=O)[C@H](COC2CCC2)Oc2ncnc3c2cnn3-c2cnccc2C)cn1", "note": "[Example 188, (2S)-3-cyclobutoxy-N-(5-methylpyrazin-2-yl)-2-(1-(4-methylpyridin-3-yl)-1H-pyrazolo[3,4-d]pyrimidin-4-yloxy)propanamide]", "EC50": 1.1},
      {"smiles": "Cc1cnc(NC(=O)[C@H](CN2CC(O)C2)Oc2ncnc3c2cnn3-c2c(Cl)cccc2C#N)cn1", "note": "[Example 239, (2S)-2-[1-(2-chloro-6-cyano-phenyl)pyrazolo[3,4-d]pyrimidin-4-yl]oxy-3-(3-hydroxyazetidin-1-yl)-N-(5-methylpyrazin-2-yl)propanamide]", "EC50": 0.49},
      {"smiles": "C[C@@H](CO)OC[C@H](Oc1ncnc2c1cnn2-c1ncccc1Cl)C(=O)Nc1ccc(Cl)cn1", "note": "[Example 193, (2S)—N-(5-chloropyridin-2-yl)-2-(1-(3-chloropyridin-2-yl)-1H-pyrazolo[3,4-d]pyrimidin-4-yloxy)-3-((S)-1-hydroxypropan-2-yloxy)propanamide]", "EC50": 3.3}
    ]}
  ]
}
